Reference: patent publication US20080171710A1, “The Redox/Fyn/c-Cbl Pathway” (priority 2007, published 2008)

Key:
SRE-luciferase reporter = SRE-luciferase reporter assay; assay type: cell-based, rat
Procedure: (§1) Cells were deprived of PDGF-AA for 5 h before re-exposure to PDGF-AA (10 ng/ml) for 1 h for Western blot or 6 h for luciferase assays of pathway activation. Transient transfection was performed using Fugene6 (Roche, Basel, Switzerland ) transfection solution according to the manufacturer's protocol. For the luciferase assay, cells seeded in 12-well plates were transfected with a reporter plasmid SRE-Luc(firefly) or NF-κB-Luc(firefly) (BD-Clontech, Palo Alto, Calif., United States) and an internal control plasmid pRLSV40-LUC. Analyses of luciferase activity were performed according to the protocol of the Dual Luciferase Assay System (Promega, Madison, Wis., United States), which uses an internal control of Renilla luciferase for quantification, and relative light units were measured using a luminometer.

PDGFRα [1] = test: PDGFRα phosphorylation (Western blot, anti-PDGFRα(pY742)); assay type: cell-based, rat
[2] = test system: NF-κB-luciferase reporter; test: NF-κB-luciferase reporter assay; assay type: cell-based, rat
Procedure: as §1

EGFR = assay type: cell-based, rat
Method in brief: (§2)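 Western blot of cell lysates or sonicated tissue in RAPI buffer, SDS-PAGE to PVDF, primary antibodies (phospho-Erk, phospho-Akt, receptor, phospho-tyrosine), HRP secondary and luminol detection. Signaling analysed in presence of the cognate ligand: EGF for EGFR, NT-3 for TrkC, HGF for c-Met.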

c-Met = assay type: cell-based, rat
Method in brief: as §2

O-2A/OPCs = test: In vitro BrdU incorporation assay; assay type: cell-based, rat
Method in brief: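 Surface antigens stained on live or 2% paraformaldehyde-fixed cells; intracellular ones after ice-cold methanol (4 min) or 0.5% Triton (15 min). Fluorescent secondary antibodies applied for 20 min.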

Fyn = target: T1, Fyn (Rattus norvegicus, UniProt Q62844); assay type: cell-based
T1 construct: 250 μg of total cell lysates were immunoprecipitated with anti-Fyn antibody; endogenous in cells; host or cells: primary rat O-2A/OPCs
T1 sequence (Q62844 whole entry): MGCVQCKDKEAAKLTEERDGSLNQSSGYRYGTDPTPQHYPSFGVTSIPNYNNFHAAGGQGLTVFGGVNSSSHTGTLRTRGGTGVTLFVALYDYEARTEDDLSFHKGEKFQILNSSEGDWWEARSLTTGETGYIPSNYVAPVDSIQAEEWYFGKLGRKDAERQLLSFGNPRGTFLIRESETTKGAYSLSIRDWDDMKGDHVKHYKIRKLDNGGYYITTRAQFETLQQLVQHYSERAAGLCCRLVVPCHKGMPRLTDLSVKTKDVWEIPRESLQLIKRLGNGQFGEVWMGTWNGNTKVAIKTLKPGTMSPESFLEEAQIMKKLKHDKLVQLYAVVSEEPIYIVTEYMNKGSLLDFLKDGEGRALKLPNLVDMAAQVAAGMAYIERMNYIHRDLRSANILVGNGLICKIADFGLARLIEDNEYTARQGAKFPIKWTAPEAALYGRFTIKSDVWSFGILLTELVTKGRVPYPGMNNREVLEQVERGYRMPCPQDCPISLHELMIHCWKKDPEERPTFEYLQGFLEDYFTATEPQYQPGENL
Method in brief: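 Rat O-2A/OPC lysates (250 μg total protein) immunoprecipitated with anti-Fyn antibody. Washed Fyn immune complexes assayed for tyrosine kinase activity with a universal tyrosine kinase kit.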

PDGFRα [3] = assay type: cell-based, rat
Erk1/2 = assay type: cell-based, rat
Akt = assay type: cell-based, rat
Method in brief: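 Cells deprived of PDGF-AA for 5 h, then re-exposed to PDGF-AA (10 ng/ml) for 1 h. Lysates in RIPA buffer resolved by SDS-PAGE and immunoblotted with phospho-specific and total Akt or Erk antibodies, detected by HRP chemiluminescence.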

c-Cbl = assay type: cell-based, rat
Method in brief: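 Pre-cleared cell lysates (250 μg total protein) immunoprecipitated with anti-c-Cbl or anti-PDGFRα antibody (2 h, 4° C), then protein A/G agarose overnight at 4° C. Precipitates run on 8% SDS-PAGE and Western blotted with anti-p-Tyr (c-Cbl phosphorylation) or anti-ubiquitin (PDGFR ubiquitylation).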

[4] = 1 mM NAC in the absence of toxicants
[5] = NAC 1 mM, PP1 100 nM or ICI 182,780 200 nM with TMX
[6] = added 1 h before Pb or paraquat
[7] = 30 nM MeHg, 1 μM Pb, 5 μM paraquat

SMILES: CC(=O)N[C@@H](CS)C(=O)O [NAC, N-acetyl-L-cysteine]
- effect on MeHg suppression of SRE reporter activity (SRE-luciferase reporter; 1 mM NAC with MeHg): rescued normal level
- effect on MeHg-induced suppression of PDGFRα phosphorylation (PDGFRα [1]; co-exposure with MeHg): rescued
- effect on MeHg suppression of Nf-κB reporter activity ([2]; 1 mM NAC with MeHg): rescued normal level
- effect on EtOH-induced reduction of EGFR levels (EGFR; NAC added 1 hr before EtOH): substantial rescue
- effect on toxicant-associated reductions in EGFR levels (EGFR; NAC with MeHg, Pb, or paraquat): protected
- effect on EtOH-induced reduction of c-Met levels (c-Met; NAC added 1 hr before EtOH): substantial rescue
- effect on toxicant-associated reductions in c-Met levels (c-Met; NAC with MeHg, Pb, or paraquat): protected
- effect on TMX effect on cell proliferation (O-2A/OPCs; with TMX, 2 days): blocked
- effect on basal Fyn activity (Fyn; [4]): only a slight, insignificant effect
- effect on TMX-induced activation of Fyn (Fyn; [5]): blocked
- effect on MeHg-induced Fyn activation (Fyn; added 1 h before MeHg): blocked
- effect on Pb- and paraquat-induced Fyn activation (Fyn; [6]): blocked
- effect on TMX-induced reductions in levels of PDGFRα (PDGFRα [3]; [5]): blocked
- effect on EtOH-induced reduction of PDGFRα levels (PDGFRα [3]; NAC added 1 hr before EtOH): substantial rescue
- effect on Aβ-induced reduction in PDGFRα levels (PDGFRα [3]; co-exposure with Aβ): blocked
- effect on MeHg-induced reductions in levels of PDGFRα (PDGFRα [3]; together with MeHg): prevented
- effect on Pb- and paraquat-induced reductions in levels of PDGFRα (PDGFRα [3]; together with Pb (1 μM) or paraquat (5 μM)): protected
- effect on EtOH suppression of Erk1/2 phosphorylation (Erk1/2; 1 mM NAC with EtOH): rescued
- effect on Aβ(1-42) suppression of PDGF-mediated Erk1/2 phosphorylation (Erk1/2; co-exposure with Aβ(1-42)): blocked
- effect on MeHg-associated suppression of Erk1/2 phosphorylation (Erk1/2; co-treatment with MeHg): rescued
- effect on Pb and paraquat effects on Erk1/2 phosphorylation (Erk1/2; co-treatment with Pb or paraquat): protected
- effect on EtOH suppression of Akt phosphorylation (Akt; 1 mM NAC with EtOH): rescued
- effect on MeHg suppression of Akt phosphorylation (Akt; 1 mM NAC with MeHg): rescued
- effect on levels of c-Cbl phosphorylation without toxicant (c-Cbl; [4]): did not have any marked effect
- effect on TMX-induced activation of c-Cbl (c-Cbl; [5]): blocked
- effect on MeHg-induced c-Cbl phosphorylation (c-Cbl; added 1 h before MeHg): blocked
- effect on Pb- and paraquat-induced c-Cbl phosphorylation (c-Cbl; [6]): blocked
- effect on Aβ-induced increase in phosphorylated c-Cbl (c-Cbl; co-exposure with Aβ): blocked

SMILES: [CH3][Hg][Cl] [MeHg, methylmercury]
- NT-3-induced expression from SRE-luciferase reporter (SRE-luciferase reporter; 30 nM MeHg): no reduction in NT-3-induced expression
- PDGF-induced SRE-luciferase reporter expression (SRE-luciferase reporter; 30 nM MeHg, 24 h): reduced expression
- phosphorylation of PDGFRα after toxicant exposure (PDGFRα [1]; [7]): also reduced
- PDGF-induced NF-κB-luciferase reporter expression ([2]; 30 nM MeHg, 24 h): decreased
- levels of EGFR after toxicant exposure (EGFR; MeHg, Pb or paraquat): reductions
- levels of c-Met after toxicant exposure (c-Met; MeHg, Pb or paraquat): reductions
- drop in the percentage of O-2A/OPCs incorporating BrdU (O-2A/OPCs; 20 nM MeHg, stimulation with PDGF): approximately 25%
- Fyn activation after toxicant exposure (Fyn; [7]): stimulated Fyn activation
- PDGFRα loss in the presence of cycloheximide (PDGFRα [3]; MeHg 20 nM plus cycloheximide, versus cycloheximide alone): further accelerated receptor loss
- total levels of PDGFRα after toxicant exposure (PDGFRα [3]; MeHg 30 nM, 1 μM Pb, 5 μM paraquat): reduction in levels of the PDGFRα itself
- NT-3-induced Erk1/2 phosphorylation (Erk1/2; 30 nM MeHg): no reduction in Erk1/2 phosphorylation
- PDGF-induced Erk1/2 phosphorylation after toxicant exposure (Erk1/2; 30 nM MeHg 24 h, 1 μM Pb, 5 μM paraquat): reduced ERK1/2 phosphorylation
- PDGF-induced Akt phosphorylation (Akt; 30 nM MeHg, 24 h): decreased
- c-Cbl phosphorylation after toxicant exposure (c-Cbl; [7]): stimulated
